Measured values reported in publication PMC8953385, “2-Styrylchromones: Cytotoxicity and Modulation of Human Neutrophils’ Oxidative Burst” (Pharmaceuticals, 2022).

Experiments:
[1] = tested on: human neutrophils; experiment: Annexin V/PI flow cytometric assay of neutrophils’ viability; assay type: cell-based; conditions: for Higher 2-SC concentration that did not affect human neutrophils’ viability: annexin V/PI assay, 40 min incubation at 37 °C
Source text: (§1) Following the Declaration of Helsinki and the approval of patient-related procedures and protocols by the Ethics Committee of Centro Hospitalar do Porto, Portugal, venous blood was collected from healthy human blood donors, after informed consent. The blood was stored into K3EDTA vacuum tubes after antecubital venipuncture of the donors. In order to obtain the isolated neutrophils, the density gradient centrifugation method was applied, as previously reported, with modifications. In brief, in a 15 mL polypropylene tube, 3 mL of histopaque 1119 were added followed by 3 mL of histopaque 1077 and finally, 4.5 mL of the collected blood were slowly added. Each tube was centrifuged at 900× g at 20 °C for 30 min, with a medium acceleration and deceleration speed. Following centrifugation, the neutrophils’ portion was harvested, and PBS was added to double the volume. The neutrophils’ suspension was then centrifuged at 850× g at 4 °C for 5 min, using a maximum acceleration and deceleration speed. The supernatant was discarded, and the neutrophils’ pellet was resuspended in PBS and afterward milli-Q water was added to lyse the residual erythrocytes. The tube was gently homogenized and after a few minutes, 3% NaCl was added to restore isotony, and then centrifuged again at 850× g at 4 °C for 5 min, using a maximum acceleration and deceleration speed. The supernatant was discarded, and a neutrophils’ pellet was obtained. After isolation, the neutrophils’ pellet was resuspended in the incubation media, tris-glucose buffer (25 mM Trizma® base, 5.5 mM D-glucose, 140 mM NaCl, 1.26 mM CaCl2, 0.81 mM MgSO4, 5.37 mM KCl, pH = 7.4). Neutrophils’ suspension was kept on ice, under soft shaking, until use. The trypan blue exclusion method was used to determine cells’ yield and viability.
(§2) The effect of the studied 2-SC on neutrophils’ viability was assessed by flow cytometry, after simultaneous staining with FITC Annexin V and propidium iodide (PI) (Figure S1), as previously reported by our research group, with modifications. After isolation, neutrophils (1 × 10^6 cells/mL) were incubated with 2-SC (up to 100.00 μM) or DMSO for 40 min, at 37 °C, in a 48-well plate. At the end of incubation, the content of each well was transferred to conical microtubes and centrifuged at 400× g at 20 °C for 5 min. After discarding the supernatant, the neutrophils’ pellet was resuspended in PBS and centrifuged under the previous conditions. Once the supernatant was removed, the pellet was resuspended in 10× diluted binding buffer, and then PI and annexin V were added. This mixture was incubated in the dark at room temperature for 15 min, and finally, 10× diluted binding buffer was added. In a flow cytometer, the fluorescence signal, of at least 10,000 cells/sample, were collected in logarithmic mode and followed in channels 1 and 3. The green fluorescence corresponding to annexin V FITC was accompanied in channel 1 and plotted as a histogram of FL1 staining, whereas the fluorescence corresponding to PI was monitored in channel 3 and plotted in the same histogram but as FL3 staining. The collected data were analyzed with the BD Accuri™ C6 software. The data analysis was restricted to the neutrophils’ population. Thus, according to the light-scattering properties of neutrophils (in a forward versus side scatter plot), a polygon gate was drawn, where debris and other blood cells were excluded. The effect of 2-SC on neutrophils’ viability was expressed as a relative percentage of apoptotic and/or necrotic cells when compared to the control (without 2-SC).

[2] = tested on: human neutrophils’ oxidative burst; experiment: Neutrophils’ oxidative burst, PMA stimulation, luminol chemiluminescence; assay type: cell-based; conditions: for inhibition at 75 µM: 75.00 µM (highest tested concentration); for IC50: PMA 160.00 nM, luminol 500.00 μM, mean ± SEM, read-out: IC50, inhibition of human neutrophils’ oxidative burst; for inhibition at 50 µM: 50.00 µM (highest tested concentration); for inhibition at 25 µM: 25.00 µM (highest tested concentration); for Times less active than C8 (oxidative burst): comparison of IC50 values with C8
Source text: as §1
The effect of 2-SC on the modulation of neutrophils’ oxidative burst was assessed after the stimulation of these cells with PMA by monitoring the oxidation of chemiluminescent probe, luminol, by the generated reactive species (Figure S2), according to a previously described methodology. Briefly, neutrophils (1 × 10^6 cells/mL) were pre-incubated with luminol (500.00 μM), and 2-SC (0.00–100.00 μM) or DMSO, at the final concentrations indicated. After this pre-incubation, at 37 °C for 5 min, PMA (160.00 nM) was added, and in turn, neutrophils’ stimulation was initiated. Kinetic readings were immediately initiated and followed for 40 min, at 37 °C, in a microplate reader. The arbitrary chemiluminescence value was taken at the peak of the curve, and the results were expressed as the inhibition percentage of luminol oxidation.
GraphPad Prism 6 software was used to plot the curves of percentage of inhibition versus concentrations of compound, from which the concentration that produces 50% of inhibition (IC50) was determined. GraphPad Prism 6 software was also used to perform all statistical analyses. […] In all cases, p-values < 0.05 were considered statistically significant. The results are expressed as mean ± standard error of the mean (SEM).

[3] = Annexin V/PI flow cytometric assay of neutrophils’ viability; assay type: cell-based, human; conditions: human, isolated human neutrophils, pH 7.4; 75.00 μM; representative plot, Figure 4; read-out: Viable cells [annexin V (−)/PI (−)], lower left quadrant
Source text: as §1, §2

[4] = Homo sapiens, Neutrophil, read-out: Inhibitory activity (% ± SEM), neutrophils’ oxidative burst

SMILES | Higher 2-SC concentration that did not affect human neutrophils’ viability [1] [µM] | IC50 ([2]; Homo sapiens, Neutrophil) [nM] | also measured
COc1cc(OC)c2c(=O)cc(/C=C/c3ccc(OCc4ccccc4)c(OCc4ccccc4)c3)oc2c1 [D2] | 12.50 |  | 
Cc1ccc(/C=C/c2cc(=O)c3c(O)cccc3o2)cc1 [E2] | 12.50 |  | 
O=c1cc(/C=C/c2cccc(O)c2)oc2ccccc12 [A6] | 100.00 |  | inhibition at 100 µM ([2]; Homo sapiens, Neutrophil, 100.00 µM (highest tested concentration), read-out: Inhibitory activity (% ± SEM), neutrophils’ oxidative burst): < 30%
O=c1cc(/C=C/c2ccccc2)oc2cc(O)ccc12 [A3] | 75.00 |  | viability at 40 min, 75 µM [3]: 84.3%; Effect on human neutrophils’ viability ([1]; 75.00 μM): showed no effect on human neutrophils’ viability; inhibition at 75 µM [2, 4]: 53 ± 4%
O=c1cc(/C=C/c2ccc(O)cc2)oc2ccccc12 [B1] | 25.00 | 7500 ± 400 | Effect on total neutrophils’ population percentage ([1]; 50.00 μM): affected the total neutrophils’ population percentage
COc1ccc2c(=O)c(Br)c(/C=C/c3ccc(OC)c(OC)c3)oc2c1 [H3] | 12.50 |  | 
COc1cc(OC)c2c(=O)cc(/C=C/c3ccc(O)c(O)c3)oc2c1 [B11] | 12.50 | 800 ± 100 | 
O=c1cc(/C=C/c2ccc(O)c(O)c2)oc2cc(O)cc(O)c12 [B9] | 12.50 | 800 ± 100 | 
COc1ccc2c(=O)cc(/C=C/c3ccc(OCc4ccccc4)c(OCc4ccccc4)c3)oc2c1OC [D3] | 12.50 |  | 
COc1cc(OC)c2c(=O)c(Br)c(/C=C/c3ccccc3)oc2c1 [H2] | 50.00 |  | inhibition at 50 µM [2, 4]: < 30%
O=c1cc(/C=C/c2ccc(OCc3ccccc3)c(OCc3ccccc3)c2)oc2ccccc12 [D1] | 12.50 |  | 
O=c1cc(/C=C/c2ccccc2)oc2cccc(O)c12 [A2] | 6.25 |  | 
COc1ccc2c(=O)cc(/C=C/c3ccc(O)c(O)c3)oc2c1 [B10] | 6.25 | 1000 ± 100 | 
O=c1cc(/C=C/c2ccc(O)cc2)oc2cc(O)cc(O)c12 [B4] | 6.25 | 3100 ± 300 | 
O=c1cc(/C=C/c2ccccc2)oc2ccccc12 [A1] | 75.00 |  | inhibition at 75 µM [2, 4]: < 30%
O=c1cc(/C=C/c2ccc(O)c(O)c2)oc2c(O)c(O)ccc12 [B12] | 12.50 | 900 ± 300 | 
O=c1cc(/C=C/c2ccc(O)c(O)c2)oc2ccccc12 [B6] | 12.50 | 1000 ± 100 | Times more active than B1 (oxidative burst) ([2]; comparison of IC50 values with B1): ~7.5 times
Cc1ccc(/C=C/c2cc(=O)c3ccccc3o2)cc1 [E1] | 25.00 |  | 
O=c1cc(/C=C/c2ccc(O)c(O)c2)oc2cc(O)ccc12 [B8] | 25.00 | 700 ± 100 | 

SMILES | Higher 2-SC concentration that did not affect human neutrophils’ viability [1] [µM] | IC50 ([2]; Homo sapiens, Neutrophil) [nM] | also measured
O=c1cc(/C=C/c2c(Cl)cccc2Cl)oc2cccc(O)c12 [G4] | 25.00 |  | inhibition at 25 µM [2, 4]: < 30%
COc1ccc(/C=C/c2cc(=O)c3c(OC)cccc3o2)cc1OC [C3] | 50.00 |  | inhibition at 50 µM [2, 4]: 54 ± 4%
O=c1cc(/C=C/c2ccc(O)cc2)oc2cc(O)ccc12 [B3] | 25.00 | 4100 ± 300 | 
COc1ccc2c(=O)c(Br)c(/C=C/c3ccccc3)oc2c1 [H1] | 12.50 |  | 
O=c1cc(/C=C/c2ccc(Cl)c(Cl)c2)oc2cccc(O)c12 [G3] | 25.00 |  | inhibition at 25 µM [2, 4]: < 30%
COc1cc(O)c2c(=O)cc(/C=C/c3ccc(O)cc3)oc2c1 [B5] | 6.25 |  | 
O=c1cc(/C=C/c2cccc(O)c2)oc2cccc(O)c12 [A7] | 6.25 |  | 
O=c1cc(/C=C/c2cccc(Cl)c2)oc2cccc(O)c12 [G1] | 12.50 |  | 
O=c1c(O)c(-c2ccc(O)c(O)c2)oc2cc(O)cc(O)c12 [Quercetin, quercetin, reference compound] |  | 800 ± 100 | 
O=c1cc(/C=C/c2ccc([N+](=O)[O-])cc2)oc2cccc(O)c12 [F2] | 12.50 |  | 
COc1ccc(/C=C/c2cc(=O)c3ccc(OC)c(OC)c3o2)cc1OC [C6] | 37.50 | 20000 ± 2000 | Times less active than C8 (oxidative burst) [2]: ~17 times
COc1ccc2c(=O)cc(/C=C/c3ccc(O)c(O)c3)oc2c1OC [B13] | 12.50 | 1000 ± 200 | 
COc1cc(OC)c2c(=O)cc(/C=C/c3ccc(OC)c(OC)c3)oc2c1 [C5] | 75.00 |  | inhibition at 50 µM [2, 4]: 54 ± 2%
O=c1cc(/C=C/c2ccccc2O)oc2cccc(O)c12 [A8] | 25.00 |  | inhibition at 25 µM [2, 4]: < 30%
COc1ccc(/C=C/c2cc(=O)c3ccc(OCc4ccccc4)c(OCc4ccccc4)c3o2)cc1OC [C7] | 25.00 |  | inhibition at 25 µM [2, 4]: < 30%
COc1ccc2c(=O)cc(/C=C/c3ccc(OC)c(OC)c3)oc2c1 [C4] | 37.50 | 24200 ± 300 | Times less active than C8 (oxidative burst) [2]: about 14 times
COc1cccc2oc(/C=C/c3ccccc3)cc(=O)c12 [A5] | 6.25 |  | 
O=c1cc(/C=C/c2ccc(O)c(O)c2)oc2cccc(O)c12 [B7] | 0.38 |  | Effect on human neutrophils’ viability ([1]; 0.38 μM): no effect on the viability was observed; Inhibitory activity (% ± SEM), neutrophils’ oxidative burst ([2]; 0.38 µM (highest tested concentration)): did not show an inhibitory effect; inhibition at 0.38 µM ([2]; Homo sapiens, Neutrophil, 0.38 µM (highest tested concentration), read-out: Inhibitory activity (% ± SEM), neutrophils’ oxidative burst): < 30%
